US10675303B2, “Extracellular matrix compositions for the treatment of cancer” (ADAPTIVE BIOLOGIX, INC., priority 2008, dated 2020)

Columns and labels:
MDA435 cells = assay: Tumor growth of MDA435 cells in nude mice; format: in vivo
Method: (§1) Tumor growth of B16 cells, C6 cells, or MDA435 cells in the presence or absence of ECM, and with or without cisplatin, were examined in nude mice. Cells, ECM and Cisplatin were injected simultaneously subcutaneously in the lower haunch of a nude mouse. Tumor growth was followed over time using photography, measurements of length and width, then finally by weight. FIGS. 8 and 9 show the growth of tumors from C6 cells in nude mice in the presence (FIG. 9) and absence (FIG. 8) of ECM on day 14 post-injection. FIGS. 10 and 11 show the growth of tumors from C6 cells in nude mice in the presence of ECM with cisplatin (FIG. 10) and cisplatin without ECM (FIG. 11) of ECM on day 14 post-injection.

C6 cells = assay: Tumor growth of C6 cells in nude mice; format: in vivo; conditions: compared to no treatment control (FIG. 12)
Method: as §1

Structure (SMILES): N.N.[Cl][Pt][Cl] [cisplatin]
- tumor growth of MDA435 cells over 25 days (MDA435 cells; nude mice, compared to no treatment control (FIG. 14)): reduction in tumor mass to zero
- tumor growth of MDA435 cells in nude mice (MDA435 cells; versus no treatment control with palpable tumors (FIGS. 13A-D)): reduced or no tumor growth
- tumor growth of C6 cells over 18 days (C6 cells): no growth
